According to article PMC5218480 (PLoS ONE, 2017):

System: MV-4-11 cells
Assay: Gene expression microarray analysis (Affymetrix PrimeView) and GSEA
Format: cell-based, human
Set-up: RFU PODN (11730768_x_at) / Fold change /veh PODN (11730768_x_at) / RFU LINC00158 (11744669_a_at) / Fold change /veh LINC00158 (11744669_a_at) / RFU DUSP10 (11751237_a_at) / Fold change /veh DUSP10 (11751237_a_at) / RFU ID3 (11757404_x_at) / Fold change /veh ID3 (11757404_x_at) / RFU PLEKHG5 (11737974_s_at) / Fold change /veh PLEKHG5 (11737974_s_at) / RFU LRRC4B (11730491_at) / Fold change /veh LRRC4B (11730491_at) / RFU GIMAP4 (11747438_a_at) / Fold change /veh GIMAP4 (11747438_a_at) / RFU KRT8 (11758183_x_at) / Fold change /veh KRT8 (11758183_x_at) / RFU CNN1 (11734310_a_at) / Fold change /veh CNN1 (11734310_a_at) / RFU VPS37D (11726825_at) / Fold change /veh VPS37D (11726825_at) / RFU C10orf10 (11716522_x_at) / Fold change /veh C10orf10 (11716522_x_at) / RFU KIR2DL2 /// KIR2DL4 /// KIR2DL5A /// KIR2DL5B /// KIR2DS1 /// KIR2DS2 /// KIR2DS3 /// KIR2DS4 /// KIR3DL3 /// KIR3DL3 /// KIR3DS1 (11738374_at) / Fold change /veh KIR2DL2 /// KIR2DL4 /// KIR2DL5A /// KIR2DL5B /// KIR2DS1 /// KIR2DS2 /// KIR2DS3 /// KIR2DS4 /// KIR3DL3 /// KIR3DL3 /// KIR3DS1 (11738374_at) / RFU C1QL1 (11718748_at) / Fold change /veh C1QL1 (11718748_at) / RFU TMPRSS4 (11747572_a_at) / Fold change /veh TMPRSS4 (11747572_a_at) / RFU HAMP (11756126_x_at) / Fold change /veh HAMP (11756126_x_at) / RFU RNFT2 (11725882_a_at) / Fold change /veh RNFT2 (11725882_a_at) / RFU NR4A2 (11747474_a_at) / Fold change /veh NR4A2 (11747474_a_at) / RFU ABCC12 (11746883_a_at) / Fold change /veh ABCC12 (11746883_a_at) / RFU TMEM136 (11760407_x_at) / Fold change /veh TMEM136 (11760407_x_at) / RFU CLDN22 /// WWC2 (11732394_at) / Fold change /veh CLDN22 /// WWC2 (11732394_at) / RFU HLA-DPB1 (11760878_x_at) / Fold change /veh HLA-DPB1 (11760878_x_at) / RFU SPINT1 (11716480_a_at) / Fold change /veh SPINT1 (11716480_a_at) / RFU GAP43 (11754022_s_at) / Fold change /veh GAP43 (11754022_s_at) / RFU A4GNT (11735810_at) / Fold change /veh A4GNT (11735810_at) / RFU PRB3 (11715151_x_at) / Fold change /veh PRB3 (11715151_x_at) / RFU TUBB4B (11761932_at) / Fold change /veh TUBB4B (11761932_at) / RFU CAPN14 (11732068_a_at) / Fold change /veh CAPN14 (11732068_a_at) / RFU TMCC2 (11721928_a_at) / Fold change /veh TMCC2 (11721928_a_at) / RFU IRGQ (11745062_a_at) / Fold change /veh IRGQ (11745062_a_at) / RFU FAM174B (11720279_a_at) / Fold change /veh FAM174B (11720279_a_at) / RFU TMPRSS4 (11748680_a_at) / Fold change /veh TMPRSS4 (11748680_a_at) / RFU FAM212B (11763350_a_at) / Fold change /veh FAM212B (11763350_a_at) / RFU PLEKHG5 (11743358_a_at) / Fold change /veh PLEKHG5 (11743358_a_at) / RFU ZSCAN30 (11745921_a_at) / Fold change /veh ZSCAN30 (11745921_a_at) / RFU CMKLR1 (11741424_a_at) / Fold change /veh CMKLR1 (11741424_a_at) / RFU LOC101060620 /// MAPK8IP1 (11723275_at) / Fold change /veh LOC101060620 /// MAPK8IP1 (11723275_at) / RFU SPTSSB (11747773_x_at) / Fold change /veh SPTSSB (11747773_x_at) / RFU PRSS12 (11739890_at) / Fold change /veh PRSS12 (11739890_at) / RFU BIN1 (11741810_x_at) / Fold change /veh BIN1 (11741810_x_at) / RFU WNT11 (11732464_a_at) / Fold change /veh WNT11 (11732464_a_at) / RFU C10orf10 (11716521_a_at) / Fold change /veh C10orf10 (11716521_a_at) / RFU C5orf56 (11738089_at) / Fold change /veh C5orf56 (11738089_at) / RFU CYB561 (11721691_x_at) / Fold change /veh CYB561 (11721691_x_at) / RFU ANKRD19P (11752326_a_at) / Fold change /veh ANKRD19P (11752326_a_at) / RFU OR2T12 /// OR2T33 /// OR2T8 (11738714_s_at) / Fold change /veh OR2T12 /// OR2T33 /// OR2T8 (11738714_s_at) / RFU VCAN (11748164_a_at) / Fold change /veh VCAN (11748164_a_at) / RFU JSRP1 (11732532_at) / Fold change /veh JSRP1 (11732532_at) / RFU KRTAP10-11 (11738290_x_at) / Fold change /veh KRTAP10-11 (11738290_x_at) / RFU MYO3A (11730013_a_at) / Fold change /veh MYO3A (11730013_a_at) / RFU EBF3 (11725865_a_at) / Fold change /veh EBF3 (11725865_a_at) / RFU CAMK2N1 (11719241_x_at) / Fold change /veh CAMK2N1 (11719241_x_at) / RFU C5orf56 (11738088_a_at) / Fold change /veh C5orf56 (11738088_a_at) / RFU OLFML3 (11715873_a_at) / Fold change /veh OLFML3 (11715873_a_at) / RFU LOC100653217 /// NTM (11731650_a_at) / Fold change /veh LOC100653217 /// NTM (11731650_a_at) / RFU MAPK11 (11762145_a_at) / Fold change /veh MAPK11 (11762145_a_at) / RFU FIZ1 (11724087_x_at) / Fold change /veh FIZ1 (11724087_x_at) / RFU OASL (11726364_x_at) / Fold change /veh OASL (11726364_x_at) / RFU SOX15 (11748057_x_at) / Fold change /veh SOX15 (11748057_x_at) / RFU CD79A (11719716_a_at) / Fold change /veh CD79A (11719716_a_at) / RFU HIST1H1D (11736915_at) / Fold change /veh HIST1H1D (11736915_at) / RFU CASKIN2 (11723855_a_at) / Fold change /veh CASKIN2 (11723855_a_at) / RFU LOC730098 (11760151_x_at) / Fold change /veh LOC730098 (11760151_x_at) / RFU OR4N2 (11742367_at) / Fold change /veh OR4N2 (11742367_at) / RFU PRRT2 (11749266_a_at) / Fold change /veh PRRT2 (11749266_a_at) / RFU SNX32 (11753110_a_at) / Fold change /veh SNX32 (11753110_a_at) / RFU CDHR5 (11726645_a_at) / Fold change /veh CDHR5 (11726645_a_at) / RFU RCAN1 (11760418_a_at) / Fold change /veh RCAN1 (11760418_a_at) / RFU FAM167A (11723789_a_at) / Fold change /veh FAM167A (11723789_a_at) / RFU FAM26E (11764081_at) / Fold change /veh FAM26E (11764081_at) / RFU ISYNA1 (11749810_s_at) / Fold change /veh ISYNA1 (11749810_s_at) / RFU ACY1 (11761880_at) / Fold change /veh ACY1 (11761880_at) / RFU 11764098_at / Fold change /veh 11764098_at / RFU SAMD14 (11745864_x_at) / Fold change /veh SAMD14 (11745864_x_at) / RFU NPB (11741838_a_at) / Fold change /veh NPB (11741838_a_at) / RFU TMPRSS6 (11731388_a_at) / Fold change /veh TMPRSS6 (11731388_a_at) / RFU KRTAP10-2 (11738614_at) / Fold change /veh KRTAP10-2 (11738614_at) / RFU ARHGAP8 /// PRR5-ARHGAP8 (11727945_x_at) / Fold change /veh ARHGAP8 /// PRR5-ARHGAP8 (11727945_x_at) / RFU KRTAP5-7 /// NADSYN1 (11734609_at) / Fold change /veh KRTAP5-7 /// NADSYN1 (11734609_at) / RFU RASL12 (11751679_a_at) / Fold change /veh RASL12 (11751679_a_at) / RFU CDKN2B (11736163_a_at) / Fold change /veh CDKN2B (11736163_a_at) / RFU PRF1 (11729649_at) / Fold change /veh PRF1 (11729649_at) / RFU, ZNF638 /// ZNF638-IT1 / Fold change vs veh, ZNF638 /// ZNF638-IT1 / RFU, PANK3 / Fold change vs veh, PANK3 / RFU, SH3YL1 / Fold change vs veh, SH3YL1 / RFU, ZEB2 / Fold change vs veh, ZEB2 / RFU, NRIP1 / Fold change vs veh, NRIP1 / RFU, PTTG1IP / Fold change vs veh, PTTG1IP / RFU, CAPN2 / Fold change vs veh, CAPN2 / RFU, MED14 / Fold change vs veh, MED14 / RFU, SNORA58 / Fold change vs veh, SNORA58 / RFU, C1orf63 / Fold change vs veh, C1orf63 / RFU, LRRFIP1 / Fold change vs veh, LRRFIP1 / RFU, NDUFAF7 / Fold change vs veh, NDUFAF7 / RFU, SLC12A2 / Fold change vs veh, SLC12A2 / RFU, IBTK / Fold change vs veh, IBTK / RFU, ESF1 / Fold change vs veh, ESF1 / Fold change vs veh, TMEM50B / RFU, TAOK1 / Fold change vs veh, TAOK1 / RFU, ACBD3 / Fold change vs veh, ACBD3 / RFU, TMA16 / Fold change vs veh, TMA16 / RFU, RWDD3 / Fold change vs veh, RWDD3 / RFU, BCAT1 / Fold change vs veh, BCAT1 / RFU, EDEM3 / Fold change vs veh, EDEM3 / RFU, TMEM33 / Fold change vs veh, TMEM33 / RFU, WDR75 / Fold change vs veh, WDR75 / RFU, AHCTF1 / Fold change vs veh, AHCTF1 / RFU, TFRC / Fold change vs veh, TFRC / RFU, ZDHHC17 / Fold change vs veh, ZDHHC17 / RFU, NOM1 / Fold change vs veh, NOM1 / RFU, ARL8B / Fold change vs veh, ARL8B / RFU, ZBTB11 / Fold change vs veh, ZBTB11 / RFU, TAMM41 / Fold change vs veh, TAMM41 / RFU, KIAA1704 /// LOC100996395 / Fold change vs veh, KIAA1704 /// LOC100996395 / RFU, ING1 / Fold change vs veh, ING1 / RFU, TRMT61B / Fold change vs veh, TRMT61B / RFU, FUBP3 / Fold change vs veh, FUBP3 / RFU, TP53 / Fold change vs veh, TP53 / RFU, TNKS2 / Fold change vs veh, TNKS2 / RFU, ZFP14 / Fold change vs veh, ZFP14 / RFU, ACTR2 / Fold change vs veh, ACTR2 / RFU, PPP3R1 / Fold change vs veh, PPP3R1 / RFU, PIK3R1 / Fold change vs veh, PIK3R1 / RFU, HNRNPA1 / Fold change vs veh, HNRNPA1 / RFU, RNF170 / Fold change vs veh, RNF170 / RFU, ZNF28 / Fold change vs veh, ZNF28 / RFU, RNGTT / Fold change vs veh, RNGTT / RFU, OGT / Fold change vs veh, OGT / RFU, BRD1 / Fold change vs veh, BRD1 / RFU, MARS / Fold change vs veh, MARS / RFU, ZNF655 / Fold change vs veh, ZNF655 / RFU, FAHD1 / Fold change vs veh, FAHD1 / RFU, BDP1 / Fold change vs veh, BDP1 / RFU, LRRCC1 / Fold change vs veh, LRRCC1 / RFU, ARID1A / Fold change vs veh, ARID1A / RFU, ZNF146 / Fold change vs veh, ZNF146 / RFU, ZNF330 / Fold change vs veh, ZNF330 / RFU, GPN3 / Fold change vs veh, GPN3 / RFU, C9orf123 / Fold change vs veh, C9orf123 / RFU, N4BP2L2 / Fold change vs veh, N4BP2L2 / RFU, ARFIP1 / Fold change vs veh, ARFIP1 / RFU, FAM179B / Fold change vs veh, FAM179B / RFU, BCL10 / Fold change vs veh, BCL10 / RFU, UHRF1BP1L / Fold change vs veh, UHRF1BP1L / RFU, BET1 / Fold change vs veh, BET1 / RFU, CNOT2 / Fold change vs veh, CNOT2 / RFU, ZNF268 / Fold change vs veh, ZNF268 / Fold change vs veh, ZNF507 / RFU, DGCR2 / Fold change vs veh, DGCR2 / RFU, WDSUB1 / Fold change vs veh, WDSUB1 / Fold change vs veh, HSP90B1 /// MIR3652 / RFU, ADSS / Fold change vs veh, ADSS / RFU, GK / Fold change vs veh, GK / RFU, ZNF148 / Fold change vs veh, ZNF148 / RFU, TAF9 / Fold change vs veh, TAF9 / RFU, SLC1A5 / Fold change vs veh, SLC1A5 / RFU, SLMO2 / Fold change vs veh, SLMO2 / RFU, ABCC4 / Fold change vs veh, ABCC4 / RFU, LOC101060439 /// RAP1B / Fold change vs veh, LOC101060439 /// RAP1B / RFU, RFX7 / Fold change vs veh, RFX7 / RFU, GTPBP10 / Fold change vs veh, GTPBP10 / RFU, CNEP1R1 / Fold change vs veh, CNEP1R1 / RFU, BIVM-ERCC5 /// ERCC5 / Fold change vs veh, BIVM-ERCC5 /// ERCC5 / RFU, ILF3 / Fold change vs veh, ILF3 / RFU 11762660_at / Fold change /veh 11762660_at / RFU VCAN (11757783_s_at) / Fold change /veh VCAN (11757783_s_at) / RFU DDX43 (11728927_at) / Fold change /veh DDX43 (11728927_at) / RFU KRT8 (11758188_x_at) / Fold change /veh KRT8 (11758188_x_at) / RFU NKD1 (11759106_at) / Fold change /veh NKD1 (11759106_at) / RFU SRD5A1 (11742802_a_at) / Fold change /veh SRD5A1 (11742802_a_at) / RFU TPSAB1 /// TPSB2 (11721975_s_at) / Fold change /veh TPSAB1 /// TPSB2 (11721975_s_at) / RFU GSTM3 (11746129_a_at) / Fold change /veh GSTM3 (11746129_a_at) / RFU IL23R (11737362_x_at) / Fold change /veh IL23R (11737362_x_at) / RFU TMEM51 (11727254_a_at) / Fold change /veh TMEM51 (11727254_a_at) / RFU PIWIL2 (11732686_x_at) / Fold change /veh PIWIL2 (11732686_x_at) / RFU ORM1 (11744905_x_at) / Fold change /veh ORM1 (11744905_x_at) / RFU CCDC152 (11743942_at) / Fold change /veh CCDC152 (11743942_at) / RFU ECM1 (11717891_a_at) / Fold change /veh ECM1 (11717891_a_at) / RFU IL23R (11748794_a_at) / Fold change /veh IL23R (11748794_a_at) / RFU TNFAIP8L3 (11732012_x_at) / Fold change /veh TNFAIP8L3 (11732012_x_at) / RFU MBOAT4 (11741988_at) / Fold change /veh MBOAT4 (11741988_at) / RFU 11764193_at / Fold change /veh 11764193_at / RFU TMEM53 (11763286_at) / Fold change /veh TMEM53 (11763286_at) / RFU MAGEB2 (11727129_at) / Fold change /veh MAGEB2 (11727129_at) / RFU TMEM200A (11744735_a_at) / Fold change /veh TMEM200A (11744735_a_at) / RFU CCDC152 (11751479_a_at) / Fold change /veh CCDC152 (11751479_a_at) / RFU FAM211A (11726209_a_at) / Fold change /veh FAM211A (11726209_a_at) / RFU RGS16 (11746705_a_at) / Fold change /veh RGS16 (11746705_a_at) / RFU VCAN (11755009_s_at) / Fold change /veh VCAN (11755009_s_at) / RFU RHOB (11743442_s_at) / Fold change /veh RHOB (11743442_s_at) / RFU RGS16 (11720943_a_at) / Fold change /veh RGS16 (11720943_a_at) / RFU RGS16 (11720944_at) / Fold change /veh RGS16 (11720944_at) / RFU, VPS4B / Fold change vs veh, VPS4B / RFU, CREB1 / Fold change vs veh, CREB1 / RFU, DNAJC13 / Fold change vs veh, DNAJC13 / RFU, GNAQ / Fold change vs veh, GNAQ / RFU, CDK5R1 / Fold change vs veh, CDK5R1 / RFU, ZRANB3 / Fold change vs veh, ZRANB3 / RFU, CUL4A / Fold change vs veh, CUL4A / RFU, CCNY / Fold change vs veh, CCNY / RFU, UFL1 / Fold change vs veh, UFL1 / RFU, COG3 / Fold change vs veh, COG3 / RFU, DIAPH2 / Fold change vs veh, DIAPH2 / RFU, SKA2 / Fold change vs veh, SKA2 / RFU, AFF3 / Fold change vs veh, AFF3 / RFU, LMF1 / Fold change vs veh, LMF1 / RFU, IPO11 / Fold change vs veh, IPO11 / RFU, DFFB / Fold change vs veh, DFFB / RFU, FOXP1 / Fold change vs veh, FOXP1 / RFU, CARD8 / Fold change vs veh, CARD8 / RFU, STRN3 / Fold change vs veh, STRN3 / RFU, ADK / Fold change vs veh, ADK / RFU, RASSF2 / Fold change vs veh, RASSF2 / RFU, WIPF1 / Fold change vs veh, WIPF1 / RFU, LARP1B / Fold change vs veh, LARP1B / RFU, RASA1 / Fold change vs veh, RASA1 / RFU, RB1 / Fold change vs veh, RB1 / RFU, PPFIA1 / Fold change vs veh, PPFIA1 / RFU, MAT2A / Fold change vs veh, MAT2A / RFU, CCT5 / Fold change vs veh, CCT5 / RFU, WDR92 / Fold change vs veh, WDR92 / RFU, CUX1 / Fold change vs veh, CUX1 / RFU, TTC7A / Fold change vs veh, TTC7A / RFU, TMEM135 / Fold change vs veh, TMEM135 / RFU, DEPTOR / Fold change vs veh, DEPTOR / RFU, CPM / Fold change vs veh, CPM / RFU, DNAJB6 / Fold change vs veh, DNAJB6 / RFU, CACNA2D3 / Fold change vs veh, CACNA2D3 / RFU, DTX4 / Fold change vs veh, DTX4 / RFU, TFCP2 / Fold change vs veh, TFCP2 / RFU, GMCL1 /// GMCL1P1 / Fold change vs veh, GMCL1 /// GMCL1P1 / RFU, AEBP2 / Fold change vs veh, AEBP2 / RFU, SNHG1 /// SNORD22 /// SNORD25 /// SNORD26 /// SNORD27 /// SNORD28 /// SNORD29 /// SNORD31 / Fold change vs veh, SNHG1 /// SNORD22 /// SNORD25 /// SNORD26 /// SNORD27 /// SNORD28 /// SNORD29 /// SNORD31 / Fold change (Aza/veh), C12orf56 (ProbeSet 11735607_a_at) / Fold change (ACY-1035/veh), C12orf56 (ProbeSet 11735607_a_at) / Fold change (Aza/veh), FGFR1OP (ProbeSet 11751329_s_at) / Fold change (ACY-1035/veh), FGFR1OP (ProbeSet 11751329_s_at) / Fold change (Aza/veh), VPS36 (ProbeSet 11739960_a_at) / Fold change (ACY-1035/veh), VPS36 (ProbeSet 11739960_a_at) / RFU SYPL1 (11715823_x_at) / Fold change /veh SYPL1 (11715823_x_at) / RFU IGFBP7 (11715501_s_at) / Fold change /veh IGFBP7 (11715501_s_at) / RFU REEP3 (11722064_at) / Fold change /veh REEP3 (11722064_at) / RFU IGLL1 (11728026_x_at) / Fold change /veh IGLL1 (11728026_x_at): dose or concentration left out as unconfirmed
Conditions: ProbeSet 11727641_at; LIST B

## Nc1ncn([C@@H]2O[C@H](CO)[C@@H](O)[C@H]2O)c(=O)n1 [azacitidine]
  RFU, NOM1: 178.62 RFU
